17 compounds from patent US9346852B2, “Substituted adipic acid amides and uses thereof” (Bristol-Myers Scuibb Company, priority 2011, dated 2016) can be followed below.

The target of this assay is T1, human Y4 stable CHO clonal cells (Homo sapiens, UniProt P50391).
T1 construct: expressed in transfected cells
T1 sequence (P50391 whole entry): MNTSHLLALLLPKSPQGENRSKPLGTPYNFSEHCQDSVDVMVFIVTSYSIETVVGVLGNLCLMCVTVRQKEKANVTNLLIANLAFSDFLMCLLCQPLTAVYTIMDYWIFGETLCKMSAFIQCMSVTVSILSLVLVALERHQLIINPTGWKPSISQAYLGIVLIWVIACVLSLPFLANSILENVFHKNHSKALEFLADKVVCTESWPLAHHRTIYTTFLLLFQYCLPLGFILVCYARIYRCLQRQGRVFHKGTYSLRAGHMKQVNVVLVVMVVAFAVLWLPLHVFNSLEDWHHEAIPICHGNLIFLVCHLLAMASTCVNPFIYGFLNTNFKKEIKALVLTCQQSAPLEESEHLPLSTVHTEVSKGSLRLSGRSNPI
Briefly: NPY4 cAMP HTRF Agonist Assay. As to conditions: inhibitory cAMP assay, Gi activation by Y4 agonism, forskolin and IBMX, 30 minutes at room temperature. Format: cell-based. The protocol: NPY4 cAMP HTRF Agonist Assay
The functionality of the compound at Y4 receptor was analyzed using an inhibitory cAMP assay (CISBIO, HTRF cAMP kit #62AM4PEC) to measure the Gi activation by Y4 agonism.
The human Y4 stable CHO clonal cells were maintained in culture medium (F-12 containing 10% Fetal Bovine Serum, […] GENETICIN®, […] Zeocin). Before the experiment, 5 μL of 1 uM Forskolin (Sigma, # F6886) and 100 uM IBMX (Sigma, # I5879) in PBS buffer were added into 384-well plates (PE, Proxi-plate) that were pre-dotted with […] compounds. The cells were removed from the flasks by Cellstripper, counted and adjusted to […] in PBS buffer, and added 5 μL/well (5000 cells/well) into the above 384-well plates. The cells were then covered and incubated for 30 minutes at room temperature. After incubation, 5 μL/well of D2-conjugate in HTRF lysis buffer was first added, followed by adding 5 μL/well of anti-cAMP Cryptate in HTRF lysis buffer. The plates were incubated for another 1 hour at room temperature and read on the EnVision Multilabel Plate Reader.
Compounds described herein were tested in the above assay.
What is called EC50 is the midpoint of the concentration-response curve. The compound `COC(=O)[C@@H]1CCC[C@@H]2SCC[C@H](NC(=O)[C@H](CC[C@H](Cc3ccccc3)C(=O)N[C@H]3CCS[C@H]4CCC[C@@H](C(=O)OC)N4C3=O)Cc3ccccc3)C(=O)N21` [Example 1, Dimethyl (4S,7S,10aS,4′S,7′S,10a′S)-4,4′-(((2R,5R)-2,5-dibenzyl-1,6-dioxo-1,6-hexanediyl)diimino)bis(5-oxooctahydro-7H-pyrido[2,1-b][1,3]thiazepine-7-carboxylate)] yielded an EC50 of 17 nM. As for `COC(=O)[C@@H]1CCC[C@@H]2SCC[C@H](NC(=O)[C@H](CC[C@H](CC(C)C)C(=O)N[C@H]3CCS[C@H]4CCC[C@@H](C(=O)OC)N4C3=O)Cc3ccccc3)C(=O)N21` [Example 4], the figure is 130 nM; as for `COC(=O)[C@@H]1CCC[C@@H]2CCC[C@H](NC(=O)[C@H](CC[C@H](Cc3ccccc3)C(=O)N[C@H]3CCC[C@H]4CCC[C@@H](C(=O)OC)N4C3=O)Cc3ccccc3)C(=O)N21` [Example 5, Dimethyl (4S,7S,10aS,4′S,7′S,10a′S)-7,7′-(((2R,5R)-2,5-dibenzyl-1,6-dioxo-1,6-hexanediyl)diimino)bis(6-oxodecahydropyrido[1,2-a]azepine-4-carboxylate)], 200 nM; as for `COC(=O)[C@@H]1CCC[C@@H]2SCC[C@H](NC(=O)[C@H](CC[C@H](Cc3ccc(O)cc3)C(=O)N[C@H]3CCS[C@H]4CCC[C@@H](C(=O)OC)N4C3=O)Cc3ccc(O)cc3)C(=O)N21` [Example 9, Dimethyl (4S,7S,10aS,4′S,7′S,10a′S)-4,4′-(((2R,5R)-2,5-bis(4-hydroxybenzyl)-1,6-dioxo-1,6-hexanediyl)diimino)bis(5-oxooctahydro-7H-pyrido[2,1-b][1,3]thiazepine-7-carboxylate)], 14 nM. For the compound `COC(=O)[C@@H]1CCC[C@@H]2SCC[C@H](NC(=O)[C@H](CC[C@H](Cc3ccccc3)C(=O)N[C@@H]3C(=O)N4CCC[C@@H]4SC3(C)C)Cc3ccccc3)C(=O)N21` [Example 12, (4S,7S,10aS)-Methyl 4-((2R,5R)-2,5-dibenzyl-6-((3R,8aS)-2,2-dimethyl-4-oxohexahydro-2H-pyrrolo[2,1-b][1,3]thiazin-3-ylamino)-6-oxohexanamido)-5-oxooctahydro-2H-pyrido[2,1-b][1,3]thiazepine-7-carboxylate], the 50% effective concentration (EC50) stood at 60 nM.

With `COC(=O)[C@@H]1CCCN2CCC[C@H](NC(=O)[C@H](CC[C@H](Cc3ccccc3)C(=O)N[C@H]3CCCN4CCC[C@@H](C(=O)OC)N4C3=O)Cc3ccccc3)C(=O)N12` [Example 18, Dimethyl (1S,9S,1′S,9′S)-9,9′-(((2R,5R)-2,5-dibenzyl-1,6-dioxo-1,6-hexanediyl)diimino)bis(10-oxooctahydro-6H-pyridazino[1,2-a][1,2]diazepine-1-carboxylate)], the 50% effective concentration (EC50) is 155 nM.

For the compound `COC(=O)[C@@H]1CCC[C@@H]2SCC[C@H](NC(=O)[C@H](CC[C@H](Cc3ccccc3)C(=O)N[C@H]3CCS[C@H]4CCCCN4C3=O)Cc3ccccc3)C(=O)N21` [Example 30, (4S,7S,10aS)-Methyl 4-((2R,5R)-2,5-dibenzyl-6-oxo-6-((4S,10aS)-5-oxooctahydro-2H-pyrido[2,1-b][1,3]thiazepin-4-ylamino)hexanamido)-5-oxooctahydro-2H-pyrido[2,1-b][1,3]thiazepine-7-carboxylate], the EC50 was found to be 230 nM. As for `COC(=O)[C@@H]1CCC[C@@H]2SCC[C@H](NC(=O)[C@H](CC[C@H](CC#N)C(=O)N[C@H]3CCS[C@H]4CCC[C@@H](C(=O)OC)N4C3=O)Cc3ccccc3)C(=O)N21` [Example 32, Dimethyl (4S,7S,10aS,4′S,7′S,10a′S)-4,4′-(((2R,5R)-2-benzyl-5-(cyanomethyl)-1,6-dioxo-1,6-hexanediyl)diimino)bis(5-oxooctahydro-7H-pyrido[2,1-b][1,3]thiazepine-7-carboxylate)], the EC50 was 24 nM. As for `COC(=O)[C@@H]1CCC[C@@H]2SCC[C@H](NC(=O)[C@H](CC[C@H](Cc3ccc(O)cc3)C(=O)N[C@H]3CCS[C@H]4CCC[C@@H](C(=O)OC)N4C3=O)Cc3ccccc3)C(=O)N21` [Example 38, Dimethyl (4S,7S,10aS,4′S,7′S,10a′S)-4,4′-(((2R,5R)-2-benzyl-5-(4-hydroxybenzyl)-1,6-dioxo-1,6-hexanediyl)diimino)bis(5-oxooctahydro-7H-pyrido[2,1-b][1,3]thiazepine-7-carboxylate)], the figure is 5 nM. In turn, `COC(=O)[C@@H]1CCC[C@@H]2SCC[C@H](NC(=O)[C@H](CC[C@H](CC3CCCCC3)C(=O)N[C@H]3CCS[C@H]4CCC[C@@H](C(=O)OC)N4C3=O)Cc3cccc(Cl)c3)C(=O)N21` [Example 43, Dimethyl (4S,7S,10aS,4′S,7′S,10a′S)-4,4′-(((2R,5R)-2-(3-chlorobenzyl)-5-(cyclohexylmethyl)-1,6-dioxo-1,6-hexanediyl)diimino)bis(5-oxooctahydro-7H-pyrido[2,1-b][1,3]thiazepine-7-carboxylate)] gave a 50% effective concentration (EC50) of 835 nM. `O=C(N[C@H]1CCCCN(c2ccccc2)C1=O)[C@H](CC[C@H](Cc1ccccc1)C(=O)N[C@H]1CCS[C@H]2CCCCN2C1=O)Cc1ccccc1` [Example 59, (2R,5R)-2,5-Dibenzyl-N1-((S)-2-oxo-1-phenylazepan-3-yl)-N6-((4S,10aS)-5-oxooctahydro-2H-pyrido[2,1-b][1,3]thiazepin-4-yl)hexanediamide] returned an EC50 of 270 nM.

With `N#C[C@@H]1CCC[C@@H]2SCC[C@H](NC(=O)[C@H](CC[C@H](Cc3ccccc3)C(=O)N[C@H]3CCCCN(c4ccccc4)C3=O)Cc3ccccc3)C(=O)N12` [Example 72, (2R,5R)-2,5-Dibenzyl-N1-((4S,7S,10aS)-7-cyano-5-oxooctahydro-2H-pyrido[2,1-b][1,3]thiazepin-4-yl)-N6-((S)-2-oxo-1-phenylazepan-3-yl)hexanediamide], the EC50 came out at 55 nM.

`COC[C@@H]1CCC[C@@H]2SCC[C@H](NC(=O)[C@H](CC[C@H](Cc3ccccc3)C(=O)N[C@H]3CCCCN(c4ccccc4)C3=O)Cc3ccccc3)C(=O)N12` [Example 74, (2R,5R)-2,5-Dibenzyl-N1-((4S,7S,10aS)-7-(methoxymethyl)-5-oxooctahydro-2H-pyrido[2,1-b][1,3]thiazepin-4-yl)-N6-((S)-2-oxo-1-phenylazepan-3-yl)hexanediamide] displayed an EC50 of 470 nM. On to `COc1ccccc1N1CCCC[C@H](NC(=O)[C@H](CC[C@H](Cc2ccccc2)C(=O)N[C@H]2CCS[C@H]3CCC[C@@H](C(F)(F)F)N3C2=O)Cc2ccccc2)C1=O` [Example 79, (2R,5R)-2,5-Dibenzyl-N1-((S)-1-(2-methoxyphenyl)-2-oxoazepan-3-yl)-N6-((4S,7S,10aS)-5-oxo-7-(trifluoromethyl)octahydro-2H-pyrido[2,1-b][1,3]thiazepin-4-yl)hexanediamide], for which it took 18 nM to reach a half-maximal effect (EC50). Under `Cc1ccccc1N1CCCC[C@H](NC(=O)[C@H](CC[C@H](Cc2ccccc2)C(=O)N[C@H]2CCS[C@H]3CC[C@@H](C(F)(F)F)CN3C2=O)Cc2ccccc2)C1=O` [Example 90, (2R,5R)-2,5-Dibenzyl-N1-((S)-2-oxo-1-o-tolylazepan-3-yl)-N6-((4S,8R,10aS)-5-oxo-8-(trifluoromethyl)octahydro-2H-pyrido[2,1-b][1,3]thiazepin-4-yl)hexanediamide] stands 270 nM. Under `COc1ccccc1N1CCCC[C@H](NC(=O)[C@H](CC[C@H](Cc2ccccc2)C(=O)N[C@H]2CCS[C@H]3CCC[C@@H](C#N)N3C2=O)Cc2ccccc2)C1=O` [Example 96, (2R,5R)-2,5-Dibenzyl-N1-((4S,7S,10aS)-7-cyano-5-oxooctahydro-2H-pyrido[2,1-b][1,3]thiazepin-4-yl)-N6-((S)-1-(2-methoxyphenyl)-2-oxoazepan-3-yl)hexanediamide] stands 7 nM; under `CCC[C@@H](CC[C@H](Cc1cccc(F)c1)C(=O)N[C@H]1CCS[C@H]2CCC[C@@H](C(=O)OC)N2C1=O)C(=O)N[C@H]1CCS[C@H]2CCC[C@@H](C(=O)OC)N2C1=O` [Example 100], 210 nM.
